The results in this text go back to patent publication US7312221B2, “Inhibitors of macrophage migration inhibitory factor and methods for identifying the same” (Avanir Pharmaceuticals, priority 2003, dated 2007).

Molecules are shown by their SMILES. pIC50: −log10 of the molar value. “And” between values parts separate entries of the source, which are not always exact repeats. Equal values may be shown once. Read-outs that look alike come from different tables or passages of the source.

One series deals with T1, MIF (Homo sapiens, UniProt P14174).
T1 sequence (P14174 2-115 limits assumed): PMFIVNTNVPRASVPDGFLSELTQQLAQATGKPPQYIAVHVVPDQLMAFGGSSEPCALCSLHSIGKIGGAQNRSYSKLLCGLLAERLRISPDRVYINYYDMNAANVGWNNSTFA
The series can be described thus: Tautomerase assay (in vitro tautomerase inhibitory activity). The series is classed as biochemical. As to conditions: for MIF inhibitory activity, comparison of Compound 200 and Compound 203: in vitro activity, comparison of Table 2 (tautomerase; THP-1/MIF for 200 only); for in vitro tautomerase inhibitory activity: several different concentrations, FIG. 2 / FIG. 3. An excerpt: An alternative in vitro assay is designed to measure the ability of MIF to catalyze tautomerization of the D-isomer of dopachrome (see Rosengren et al., Mol. Med. 2:143-149, 1996; Winder et al., J. Cell Sci. 106:153-166, 1993; Aroca et al., Biochem. J. 277:393-397). Briefly, in this method, D-dopachrome is provided to MIF in the presence and absence of a candidate inhibitor and the ability to catalyze the tautomerization to 5,6-dihydroxyindole-2-carboxylic acid (DHICA) is monitored. However, use of methyl esters of D-dopachrome may be preferred in that a faster reaction rate is observed. Detection of the tautomerization can be performed by any one of a variety of standard methods.
In a similar assay, the ability of MIF to catalyze the tautomerization of phenylpyruvate may be tested (see Johnson et al., Biochem. 38(48):16024-16033, 1999). Briefly, in this method, typically ketonization of phenylpyruvate or (p-hydroxyphenyl)pyruvate is followed by spectroscopy. Further, product formation may be verified by treatment of these compounds with MIF and subsequent conversion to malate for ^1H NMR analysis.
The tautomerization reaction is carried out essentially as described by Rosengren et al., Mol. Med 2(1):143-149, 1996. D-dopachrome conversion to 5,6-dihydroxyindole-2-carboxylic acid is assessed. 1 ml sample cuvettes containing 0.42 mM substrate and 1.4 μg of MIF in a sample solution containing 0.1 mM EDTA and 10 mM sodium phosphate buffer, pH 6.0 are prepared and the rate of decrease in iminochrome absorbance is followed at 475 nm. L-dopachrome is employed as a control. In addition, the reaction products can be followed using an HPLC, utilizing a mobile phase including 20 mM KH2PO4 buffer (pH 4.0) and 15% methanol with a flow rate of 1.2 ml/min. Fluorimetric detection is followed at 295/345 nm.
Alternatively, the tautomerization reaction utilizing phenylpyruvate or (p-hydroxyphenyl)pyruvate is carried out essentially as described by Johnson et al., Biochem. 38:16024-16033, 1999. In this version, ketonization of phenylpyruvate is monitored at 288 nm (ε=17300 M^−1 cm^−1) and the ketonization of (p-hydroxyphenyl)pyruvate is monitored at 300 nm (ε=21600 M^−1 cm^−1). The assay mixture contains 50 mM Na2HPO4 buffer (1 mL, pH 6.5) and an aliquot of a solution of MIF sufficiently dilute (0.5-1.0 μL of a 2.3 mg/mL solution, final concentration of 93-186 nM) to yield an initial liner rate. The assay is initiated by the addition of a small quantity (1-3.3 μL) of either phenylpyruvate or (p-hydroxyphenyl)pyruvate from stock solutions made up in ethanol. The crystalline forms of phenylpyruvate and (p-hydroxyphenyl)pyruvate exist exclusively as the enol isomers (Larsen et al., Acta Chem. Scand. B 28:92-96, 1974).

For series [1], the target named is T2, MIF produced by THP-1 cells (Homo sapiens, UniProt P14174).
T2 construct: a test cell may express the MIF naturally (e.g., THP-1 cells); endogenous in cells; host or cells: THP-1 cells, LPS-stimulated; conditioned supernatant
T2 sequence (P14174 2-115 limits assumed): T1 sequence (P14174 2-115 limits assumed)
As to the kind of experiment: THP-1 Cell Assay (THP-1/MIF inhibition, ELISA with anti-MIF monoclonal antibody). The class given is cell-based. An excerpt:
The assays may generally be divided into three categories, those being, assays which monitor export; those which monitor effector or small molecule binding, and those that monitor MIF activity. However, it should be noted that combinations of these assays are within the scope of the present application. […] In an alternative, these two assays (i.e., binding and activity assays) may be combined into a singular assay which detects binding of a test compound (e.g., the ability to displace monoclonal antibodies or inhibit their binding) while also affecting MIF activity. Such assays include combining an ELISA type assay (or similar binding assay) with a MIF tautomerism assay or similar functional assay. As one of ordinary skill in the art may readily recognize, the exact assay employed is irrelevant, provided it is able to detect the ability of the compound of interest to bind MIF.
Varying concentrations of inhibitor analogs are added to LPS stimulated THP-1 cells and allowed to incubate overnight. The following day the amount of immunoreactive MIF detected is evaluated by ELISA.
The high throughput screening assay for MIF inhibitors is performed in a 96-well format using MIF produced by THP-1 cells and is performed as follows. MIF assays are performed by ELISA as indicated above. […] The amount of MIF is calculated by interpolation from an MIF standard curve.

[2] abbreviates: average of the determinations, read-out: Average IC 50 (Tautomerase Assay).
The mark [3] stands for this setting: single determinations, range in brackets, read-out: Tautomerase Assay (Inhibitory Concentration (IC) of 50 μm).

Turning to `N#Cc1c(N2CCN(C(=O)c3cccs3)CC2)c2ccccc2n(Cc2ccc(F)cc2)c1=O` [Compound 203], the pIC50 on MIF (setting [2]) is 7.01. Also, on MIF, the “MIF inhibitory activity, comparison of Compound 200 and Compound 203” value is given as “satisfactory MIF inhibitory activity”; the “in vitro tautomerase inhibitory activity” value was “exhibits MIF inhibitory activity”. In addition, on MIF (setting [3]), the pIC50 is 7.01. Regarding `N#Cc1c(N2CCN(C(=O)C3CCCO3)CC2)c2ccccc2n(Cc2ccc(F)cc2)c1=O` (stereo not drawn) [Compound 98, 1-(4-Fluoro-benzyl)-2-oxo-4-[4-(tetrahydro-furan-2-carbonyl)-piperazin-1-yl]-1,2-dihydro-quinoline-3-carbonitrile], the melting point – broadly, the temperature, or range, at which the solid turns liquid – is 123 to 135 °C.

As to `Cn1c(=O)c(C#N)c(N2CCN(C(=O)c3cccs3)CC2)c2ccccc21` [Compound 200], the pIC50 is 6.49 on MIF (setting [2]); 6.52 and 6.47 on MIF (setting [3]); 6.82 in series [1] (average of the determinations, read-out: Average IC 50 (THP-1/MIF Inhibition)). For the same compound, at MIF, the “MIF inhibitory activity, comparison of Compound 200 and Compound 203” value was “satisfactory MIF inhibitory activity”. For the same compound, the “in vitro tautomerase inhibitory activity” value on MIF is recorded as “exhibits MIF inhibitory activity”. The “MIF inhibitory activity in the THP-1 Cell Assay” value in series [1] (several different concentrations, FIG. 1) is on record as “exhibits MIF inhibitory activity”. Turning to `N#Cc1c(N2CCN(C(=O)c3ccc(C(F)(F)F)cc3)CC2)c2ccccc2n(Cc2ccc(F)cc2)c1=O` [Compound 100, 1-(4-Fluoro-benzyl)-2-oxo-4-[4-(4-trifluoromethyl-benzoyl)-piperazin-1-yl]-1,2-dihydro-quinoline-3-carbonitrile], the melting point was 181 to 185 °C. With `N#Cc1c(N2CCN(C(=O)c3c[nH]cn3)CC2)c2ccccc2n(Cc2ccc(F)cc2)c1=O` [Compound 101, 1-(4-Fluoro-benzyl)-4-[4-(1H-imidazole-4-carbonyl)-piperazin-1-yl]-2-oxo-1,2-dihydro-quinoline-3-carbonitrile], the melting point was in the range of 176 to 183 °C. `N#Cc1c(N2CCN(C(=O)c3ccc4ccccc4n3)CC2)c2ccccc2n(Cc2ccc(F)cc2)c1=O` [Compound 96, 1-(4-Fluoro-benzyl)-2-oxo-4-[4-(quinoline-2-carbonyl)-piperazin-1-yl]-1,2-dihydro-quinoline-3-carbonitrile] had a melting point of 144 to 157 °C. As for `Cc1cc(C(=O)N2CCN(c3c(C#N)c(=O)n(Cc4ccc(F)cc4)c4ccccc34)CC2)no1` [Compound 97, 1-(4-Fluoro-benzyl)-4-[4-(5-methyl-isoxazole-3-carbonyl)-piperazin-1-yl]-2-oxo-1,2-dihydro-quinoline-3-carbonitrile], the melting point fell in the range of 130 to 137 °C. On the same count and under the same terms, with `N#Cc1c(N2CCN(C(=O)c3ccc4c(c3)OCO4)CC2)c2ccccc2n(Cc2ccc(F)cc2)c1=O` [Compound 99, 4-[4-(Benzo[1,3]dioxole-5-carbonyl)-piperazin-1-yl]-1-(4-fluoro-benzyl)-2-oxo-1,2-dihydro-quinoline-3-carbonitrile] the figure was 140 to 160 °C; with `N#Cc1c(N2CCN(C(=O)C3CCCS3)CC2)c2ccccc2n(Cc2ccc(F)cc2)c1=O` (stereo not drawn) [Compound 102, 1-(4-Fluoro-benzyl)-2-oxo-4-[4-(tetrahydro-thiophene-2-carbonyl)-piperazin-1-yl]-1,2-dihydro-quinoline-3-carbonitrile], 133 to 140 °C. Still for that read-out and setting: the same measure for `N#Cc1c(N2CCN(C(=O)c3cnccn3)CC2)c2ccccc2n(Cc2ccc(F)cc2)c1=O` [Compound 95, 1-(4-Fluoro-benzyl)-2-oxo-4-[4-(pyrazine-2-carbonyl)-piperazin-1-yl]-1,2-dihydro-quinoline-3-carbonitrile]: 145 to 156 °C.
